{"source": "patent US20260174829A1", "about": "“METHODS OF REDUCING TYPE 2 CYTOKINE-MEDIATED INFLAMMATION USING NEUROMEDIN PEPTIDES” (Rutgers, The State University of New Jersey, priority 2018, published 2026)", "key": {"[1]": {"system": "papain-induced allergic airway inflammation", "experiment": "Papain-induced allergic airway inflammation, Nmb i.t.", "format": "in vivo, mouse", "settings": "papain-challenged mice, Nmb i.t. vs PBS, lung", "method": "(§1) FIGS. 7A-7I. Nmb treatment is sufficient to suppress allergic airway inflammation. Mice challenged with papain were treated with PBS or Nmb (i.t.) and (A) Lung ILC2s, (B) IL-5+ and IL-13+ ILC2s, and (C) eosinophils were evaluated. […] Mesenteric lymph nodes (MLNs) were isolated on day 7 post-Nb and single cells suspensions were treated with anti-CD3 and anti-CD28 in the presence or absence of Nmb for 48 hours and (E), IL-5 and (F) IL-13 were quantified in cell-free supernatants by ELISA. (F-I), Modified versions of Nmb (see Table 2) were tested for their ability to alter IL-5 and IL-13 production from anti-CD3 and anti-CD28 MLN cells isolated on day 7 post-Nb. P values were determined by two-tailed Student's t-tests. Blue asterisks represent comparisons between media treated controls and native Nmb. Red asterisks represent comparisons between media treated controls and modified version of Nmb as described in Table 2. (*,p<0.05), (**,p<0.01), (***,p<0.001) or (F-I).\nA well-established model of papain-induced allergic airway inflammation known to be dependent on ILC2s was utilized (19, 20). Mice treated with papain presented with elevated percentages of ILC2s (FIG. 7A), elevated expression of IL-5 and IL-13 by ILC2s (FIG. 7B) and lung eosinophilia (FIG. 7C). […] Thus, Nmb negatively regulate ILC2 responses both in vivo and in vitro."}, "TH2 cells": {"system": "TH2 cells", "experiment": "Anti-CD3/anti-CD28 stimulated lymph node cells (day 7 post-Nb), IL-5/IL-13 ELISA", "format": "cell-based, mouse", "settings": "LN cells day 7 post-Nb, anti-CD3 and anti-CD28, 48 hours, vs media control", "method": "as §1\nFIGS. 8A-8B. Mesenteric lymph nodes (MLNs) were isolated on day 7 post-Nb and single cells suspensions were treated with anti-CD3 and anti-CD28 in the presence or absence of native Nmb or modified versions of the peptide for 48 hours and (A), IL-5 and (B) IL-13 were quantified in cell-free supernatants by ELISA. P values were determined by two-tailed Student's t-tests. Blue asterisks represent comparisons between media treated controls and native Nmb. Red asterisks represent comparisons between media treated controls and modified version of Nmb as described in Table 2. (*,p<0.05), (**,p<0.01), (***,p<0.001).\nAt the time points evaluated post-Nb, the majority of the type 2 cytokines are ILC2-derived (14) and any effects Nmb is having on TH2 cell responses may be difficult to detect. To address this, lung-draining LNs were isolated on day 7 post-Nb and stimulated with anti-CD3 and -CD28 to activate T cells in both the presence of absence of recombinant Nmb. LN cells treated with anti-CD3 and -CD28 produced increased amounts of IL-5, and IL-13 (FIGS. 7D, 7E).\nThus, Nmb can be employed to reduce type 2 cytokine-mediated inflammation. Native Nmb is a 10-mer peptide (SEQ ID NO: 1) that operates via its ability to bind the Nmb receptor (15). This example describes the results of an alanine scan to systematically replace various residues of the Nmb with alanine (Table 2) and the resulting ability of the variant Nmb peptides to inhibit type 2 cytokine production by TH2 cells. Further, caps were added to the native form of Nmb (SEQ ID NO: 1) and its bioactivity monitored (FIG. 5A)."}}}
{"substance": "H2N-GNLWATGHFM-amide [Nmb]", "values": [{"measurement": "papain-induced ILC2 responses", "setting": "[1]", "result": "sufficient to reduce"}, {"measurement": "papain-induced eosinophilia", "setting": "[1]", "result": "sufficient to reduce"}, {"measurement": "IL-5 production from activated TH2 cells", "setting": "TH2 cells", "result": "significantly reduced"}, {"measurement": "IL-13 production from activated TH2 cells", "setting": "TH2 cells", "result": "significantly reduced"}, {"measurement": "IL-5 production from activated TH2 cells", "setting": "TH2 cells; listed as Native Nmb", "result": "significantly reduce"}, {"measurement": "IL-5 production from activated TH2 cells", "setting": "TH2 cells; listed as native Nmb", "result": "sufficient to reduce"}, {"measurement": "IL-13 production from activated TH2 cells", "setting": "TH2 cells; listed as native Nmb", "result": "sufficient to reduce"}]}
